# From patent US20260327225A1, “HETEROCYCLIC COMPOUNDS AS TRIGGERING RECEPTOR EXPRESSED ON MYELOID CELLS 2 AGONISTS AND METHODS OF USE” (VIGIL NEUROSCIENCE, INC., priority 2023, published 2026)
# pEC50: −log10 of the molar value.
# Biological target: T1, human TREM2 (Homo sapiens, UniProt Q9NZC2)
# T1 construct: expressed in transfected cells; host or cells: HEK293T-hTREM2 cells (HEK cell line expressing human TREM2 and DAP12)
# Assay: TREM2 agonist potency by cellular phosphorylation of Syk (AlphaLisa) in HEK293T-hTREM2 cells expressing human TREM2 and DAP12
# Format: cell-based
# Details: HEK293 cells expressing hTREM2 and DAP12; 45 minutes at room temperature; Syk phosphorylation, AlphaLisa; read-out: hTREM2 EC50
# How it was run: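 HEK293T cells co-expressing human TREM2 and DAP12 were exposed to compound in assay buffer for 45 min at room temperature, then lysed. Phospho-Syk measured by AlphaLisa; % activation fitted with a four-parameter agonist curve to give EC50.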
# T1 sequence (Q9NZC2 19-230): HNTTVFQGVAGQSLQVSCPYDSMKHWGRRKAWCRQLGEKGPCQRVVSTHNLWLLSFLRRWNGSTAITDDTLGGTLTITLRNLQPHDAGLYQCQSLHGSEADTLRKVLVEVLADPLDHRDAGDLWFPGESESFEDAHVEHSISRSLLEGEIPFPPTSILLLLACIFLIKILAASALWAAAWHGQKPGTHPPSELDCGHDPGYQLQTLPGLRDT
# T1 sequence (O43914 22-113 partner): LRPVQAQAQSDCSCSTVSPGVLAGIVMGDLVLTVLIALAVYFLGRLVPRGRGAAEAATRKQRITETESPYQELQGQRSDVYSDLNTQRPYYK
row,pEC50,Structure (SMILES)
1,> 7.00,"Cc1nc2nc([C@H]3CCO[C@@H](c4cnn(C5CC5)c4)C3)nc(-c3ccc(F)cc3F)c2cc1C#N [Example 18, 2-[(2R,4S)-2-(1-cyclopropylpyrazol-4-yl)tetrahydropyran-4-yl]-4-(2,4-difluorophenyl)-7-methyl-pyrido[2,3-d]pyrimidine-6-carbonitrile]"
2,> 7.00,"Cc1noc(-c2cc3c(-c4ccc(F)cc4F)nc([C@H]4CCO[C@@H](c5cnn(C6CC6)c5)C4)nc3nc2C)n1 (racemic) [Example 19, 5-[4-(2,4-difluorophenyl)-7-methyl-2-[rac-(2R,4S)-2-(1-cyclopropylpyrazol-4-yl)-tetrahydropyran-4-yl]pyrido[2,3-d]pyrimidin-6-yl]-3-methyl-1,2,4-oxadiazole]"
3,> 7.00,"Cc1nc2nc(N3C[C@@H](C)O[C@@H](c4cnn(C5CC5)c4)C3)nc(C34CC(C(F)(F)F)(C3)C4)c2nc1C1COC1 [Example 84, (2S,6R)-2-(1-cyclopropyl-pyrazol-4-yl)-6-methyl-4-[7-methyl-6-(oxetan-3-yl)-4-[3-(trifluoromethyl)-1-bicyclo[1.1.1]pentanyl]-pteridin-2-yl]morpholine]"
4,> 7.00,"Cc1cc([C@H]2CN(c3nc(C4CCCCC4)c4cc(C#N)c(C)nc4n3)CCO2)cnn1 [Example 46, 4-cyclohexyl-7-methyl-2-[2-(6-methyl-pyridazin-4-yl)morpholin-4-yl]-pyrido[2,3-d]pyrimidine-6-carbonitrile]"
5,> 7.00,"Cc1cc(-c2cc3c(-c4ccc(F)cc4F)nc(N4C[C@@H](C)O[C@@H](c5cnn(C6CC6)c5)C4)nc3nc2C)on1 [Example 11, (2S,6R)-2-(1-cyclopropylpyrazol-4-yl)-4-[4-(2,4-difluorophenyl)-7-methyl-6-(3-methylisoxazol-5-yl)pyrido[2,3-d]pyrimidin-2-yl]-6-methyl-morpholine]"
6,6.30 to 7.00,"Cc1nc2nc([C@H]3CCO[C@@H](c4cnn(C5CC5)c4)C3)nc(C34CC(C(F)(F)F)(C3)C4)c2cc1-c1ccn(C)n1 [Example 27, 2-((2R,4S)-2-(1-cyclopropyl-1H-pyrazol-4-yl)tetrahydro-2H-pyran-4-yl)-7-methyl-6-(1-methyl-1H-pyrazol-3-yl)-4-(3-(trifluoromethyl)-bicyclo[1.1.1]pentan-1-yl)pyrido[2,3-d]pyrimidine]"
7,> 7.00,"Cc1nc2nc([C@H]3CCO[C@@H](c4cnn(C5CC5)c4)C3)nc(C34CC(C(F)(F)F)(C3)C4)c2cc1C#N [Example 29, 2-[(2R,4S)-2-(1-cyclopropylpyrazol-4-yl)tetrahydropyran-4-yl]-7-methyl-4-[3-(trifluoromethyl)-1-bicyclo[1.1.1]pentanyl]pyrido[2,3-d]pyrimidine-6-carbonitrile]"
8,> 7.00,"Cc1nc2nc(N3C[C@@H](C)O[C@@H](c4cnn(C5CC5)c4)C3)nc(-c3ccc(C#N)cc3F)c2nc1C [Example 91, 4-[2-[(2S,6R)-2-(1-cyclopropylpyrazol-4-yl)-6-methyl-morpholin-4-yl]-6,7-dimethylpteridin-4-yl]-3-fluoro-benzonitrile]"
9,6.30 to 7.00,"Cc1nc2nc([C@@H]3CCO[C@@H](c4ccnc(N(C)C)c4)C3)nc(C34CC(C(F)(F)F)(C3)C4)c2nc1C (racemic) [Example 125, N,N-dimethyl-4-[rac-4-[6,7-dimethyl-4-[3-(trifluoromethyl)-1-bicyclo[1.1.1]pentanyl]pteridin-2-yl]tetrahydropyran-2-yl]pyridin-2-amine]"
10,> 7.00,Cc1nc2nc(C3CCOC(c4ccc5ncnn5c4)C3)nc(-c3ccc(F)cc3F)c2nc1C (stereo not drawn) [Example 95]
11,> 7.00,"Cc1nc2nc([C@H]3CCO[C@@H](c4ccnc(N(C)C)c4)C3)nc(C34CC(C(F)(F)F)(C3)C4)c2nc1C (racemic) [Example 124, N,N-dimethyl-4-[rac-4-[6,7-dimethyl-4-[3-(trifluoromethyl)-1-bicyclo[1.1.1]pentanyl]pteridin-2-yl]tetrahydropyran-2-yl]pyridin-2-amine]"
12,> 7.00,"Cc1nc2c(C34CC(C(F)(F)F)(C3)C4)nc(N3C[C@@H](C)O[C@@H](c4cnn(C5CC5)c4)C3)nc2c(=O)n1C [Example 127, 6-[(2S,6R)-2-(1-cyclopropylpyrazol-4-yl)-6-methyl-morpholin-4-yl]-2,3-dimethyl-8-[3-(trifluoromethyl)-1-bicyclo[1.1.1]pentanyl]pyrimido[5,4-d]pyrimidin-4-one]"
13,6.30 to 7.00,"Cc1nc2nc(C3CCOC(c4cnnc(N(C)C)c4)C3)nc(C34CC(C(F)(F)F)(C3)C4)c2nc1C (racemic) [Example 130, N,N-dimethyl-5-[rac-trans-4-[6,7-dimethyl-4-[3-(trifluoromethyl)-1-bicyclo[1.1.1]pentanyl]pteridin-2-yl]tetrahydropyran-2-yl]pyridazin-3-amine]"
14,< 6.30,"Cc1noc(-c2cc3c(-c4ccc(F)cc4F)nc(N4CCCC(N5CCOCC5)C4)nc3nc2C)n1 (stereo not drawn) [Example 15, 4-[1-[4-(2,4-difluorophenyl)-7-methyl-6-(3-methyl-1,2,4-oxadiazol-5-yl)pyrido[2,3-d]pyrimidin-2-yl]-3-piperidyl]morpholine]"
15,> 7.00,"COC(=O)c1cc2c(-c3ccc(F)cc3F)nc([C@H]3CCO[C@@H](c4cnn(C5CC5)c4)C3)nc2nc1C [Example 8, methyl 2-((2R,4S)-2-(1-cyclopropyl-1H-pyrazol-4-yl)tetrahydro-2H-pyran-4-yl)-4-(2,4-difluorophenyl)-7-methylpyrido[2,3-d]-pyrimidine-6-carboxylate]"
16,> 7.00,"Cc1nc2nc([C@H]3CCO[C@@H](c4cn(C)c(=O)s4)C3)nc(C34CC(C(F)(F)F)(C3)C4)c2nc1C (racemic) [Example 106, 3-methyl-5-[rac-(2R,4S)-4-[6,7-dimethyl-4-[3-(trifluoromethyl)-1-bicyclo[1.1.1]pentanyl]-pteridin-2-yl]tetrahydropyran-2-yl]thiazol-2-one]"
17,> 7.00,"Cc1nc2nc(C3CCOC(c4ccn5nccc5c4)C3)nc(C34CC(C(F)(F)F)(C3)C4)c2nc1C (stereo not drawn) [Example 109, 6,7-dimethyl-2-(2-pyrazolo[1,5-a]pyridin-5-yltetrahydropyran-4-yl)-4-[3-(trifluoromethyl)-1-bicyclo[1.1.1]pentanyl]pteridine]"
18,> 7.00,"Cc1nnc(-c2cc3c(-c4ccc(F)cc4F)nc(N4C[C@@H](C)O[C@@H](c5cnn(C6CC6)c5)C4)nc3nc2C)o1 [Example 12, (2S,6R)-2-(1-cyclopropylpyrazol-4-yl)-4-[4-(2,4-difluorophenyl)-7-methyl-6-(5-methyl-1,3,4-oxadiazol-2-yl)pyrido[2,3-d]pyrimidin-2-yl]-6-methyl-morpholine]"
